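48-hour exposure; five concentrations; linearly interpolated endpoints. Abbreviation: GI50, concentration required for 50% inhibition of growth. TGI: concentration producing complete growth inhibition.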
Assays:
Experiment in all cases: NCI-60 cell line screen, 48 h
786-0 renal = system: 786-0 renal
A498 renal = system: A498 renal
A549 NSCLC = system: A549 NSCLC
ACHN renal = system: ACHN renal
BT-549 breast = system: BT-549 breast
CAKI-1 renal = system: CAKI-1 renal
CCRF-CEM leukemia = system: CCRF-CEM leukemia
COLO 205 colon = system: COLO 205 colon
DU-145 prostate = system: DU-145 prostate
EKVX NSCLC = system: EKVX NSCLC
HCC-2998 colon = system: HCC-2998 colon
HCT-116 colon = system: HCT-116 colon
HCT-15 colon = system: HCT-15 colon
HL-60(TB) leukemia = system: HL-60(TB) leukemia
HOP-62 NSCLC = system: HOP-62 NSCLC
HOP-92 NSCLC = system: HOP-92 NSCLC
HS 578T breast = system: HS 578T breast
HT29 colon = system: HT29 colon
IGROV1 ovarian = system: IGROV1 ovarian
K-562 leukemia = system: K-562 leukemia
KM12 colon = system: KM12 colon
LOX IMVI melanoma = system: LOX IMVI melanoma
M14 melanoma = system: M14 melanoma
MALME-3M melanoma = system: MALME-3M melanoma
MCF7 breast = system: MCF7 breast
MDA-MB-231 breast = system: MDA-MB-231 breast
MDA-MB-468 breast = system: MDA-MB-468 breast
MOLT-4 leukemia = system: MOLT-4 leukemia
NCI-H226 lung = system: NCI-H226 lung
NCI-H23 lung = system: NCI-H23 lung
NCI-H460 lung = system: NCI-H460 lung
NCI-H522 lung = system: NCI-H522 lung
NCI/ADR-RES ovarian = system: NCI/ADR-RES ovarian
OVCAR-3 ovarian = system: OVCAR-3 ovarian
OVCAR-4 ovarian = system: OVCAR-4 ovarian
OVCAR-5 ovarian = system: OVCAR-5 ovarian
OVCAR-8 ovarian = system: OVCAR-8 ovarian
PC-3 prostate = system: PC-3 prostate
RPMI-8226 leukemia = system: RPMI-8226 leukemia
RXF 393 renal = system: RXF 393 renal
SF-268 CNS = system: SF-268 CNS
SF-295 CNS = system: SF-295 CNS
SF-539 CNS = system: SF-539 CNS
SK-MEL-2 melanoma = system: SK-MEL-2 melanoma
SK-MEL-28 melanoma = system: SK-MEL-28 melanoma
SK-MEL-5 melanoma = system: SK-MEL-5 melanoma
SK-OV-3 ovarian = system: SK-OV-3 ovarian
SN12C renal = system: SN12C renal
SNB-19 CNS = system: SNB-19 CNS
SNB-75 CNS = system: SNB-75 CNS
SR leukemia = system: SR leukemia
SW-620 colon = system: SW-620 colon
T-47D breast = system: T-47D breast
TK-10 renal = system: TK-10 renal
U251 CNS = system: U251 CNS
UACC-257 melanoma = system: UACC-257 melanoma
UACC-62 melanoma = system: UACC-62 melanoma
UO-31 renal = system: UO-31 renal

COc1ccc(CCC2NCCc3c(Br)c4c(c(OC)c32)OCO4)cc1 (stereo unspecified)
GI50 (786-0 renal): 9.75 µM
TGI (786-0 renal): > 55.8 µM
GI50 (A498 renal): 29 µM
TGI (A498 renal): > 55.8 µM
GI50 (A549 NSCLC): 4.01 µM
TGI (A549 NSCLC): > 55.8 µM
GI50 (ACHN renal): 8.23 µM
TGI (ACHN renal): > 55.8 µM
GI50 (BT-549 breast): 7.45 µM
TGI (BT-549 breast): 25.5 µM
GI50 (CAKI-1 renal): 3.08 µM
TGI (CAKI-1 renal): > 55.8 µM
GI50 (CCRF-CEM leukemia): 6.76 µM
TGI (CCRF-CEM leukemia): 37.3 µM
GI50 (COLO 205 colon): 2.84 µM
TGI (COLO 205 colon): 11.8 µM
GI50 (DU-145 prostate): 15.9 µM
TGI (DU-145 prostate): > 55.8 µM
GI50 (EKVX NSCLC): 11.5 µM
TGI (EKVX NSCLC): > 55.8 µM
GI50 (HCC-2998 colon): 6.82 µM
TGI (HCC-2998 colon): 15.5 µM
GI50 (HCT-116 colon): 1.84 µM
TGI (HCT-116 colon): > 55.8 µM
GI50 (HCT-15 colon): 3.53 µM
TGI (HCT-15 colon): > 55.8 µM
GI50 (HL-60(TB) leukemia): 2.44 µM
TGI (HL-60(TB) leukemia): 17.7 µM
GI50 (HOP-62 NSCLC): 2.68 µM
TGI (HOP-62 NSCLC): > 55.8 µM
GI50 (HOP-92 NSCLC): 2.69 µM
TGI (HOP-92 NSCLC): 18.2 µM
GI50 (HS 578T breast): 6.63 µM
TGI (HS 578T breast): 28.3 µM
GI50 (HT29 colon): 1.77 µM
TGI (HT29 colon): 8.33 µM
GI50 (IGROV1 ovarian): 3.92 µM
TGI (IGROV1 ovarian): 44.6 µM
GI50 (K-562 leukemia): 1.84 µM
TGI (K-562 leukemia): > 55.8 µM
GI50 (KM12 colon): 2.82 µM
TGI (KM12 colon): > 55.8 µM
GI50 (LOX IMVI melanoma): 6.31 µM
TGI (LOX IMVI melanoma): 14.5 µM
GI50 (M14 melanoma): 2.05 µM
TGI (M14 melanoma): > 55.8 µM
GI50 (MALME-3M melanoma): 4.98 µM
TGI (MALME-3M melanoma): 13.5 µM
GI50 (MCF7 breast): 7.13 µM
TGI (MCF7 breast): 26.6 µM
GI50 (MDA-MB-231 breast): 2.08 µM
TGI (MDA-MB-231 breast): 15.5 µM
GI50 (MDA-MB-468 breast): 4.45 µM
TGI (MDA-MB-468 breast): 15.9 µM
GI50 (MOLT-4 leukemia): 4.46 µM
TGI (MOLT-4 leukemia): > 55.8 µM
GI50 (NCI-H226 lung): 6.71 µM
TGI (NCI-H226 lung): > 55.8 µM
GI50 (NCI-H23 lung): 6.79 µM
TGI (NCI-H23 lung): 38.1 µM
GI50 (NCI-H460 lung): 2.77 µM
TGI (NCI-H460 lung): 21.7 µM
GI50 (NCI-H522 lung): 1.72 µM
TGI (NCI-H522 lung): 10.1 µM
GI50 (NCI/ADR-RES ovarian): 6.99 µM
TGI (NCI/ADR-RES ovarian): 28.4 µM
GI50 (OVCAR-3 ovarian): 3.37 µM
TGI (OVCAR-3 ovarian): 29.8 µM
GI50 (OVCAR-4 ovarian): 12.6 µM
TGI (OVCAR-4 ovarian): > 55.8 µM
GI50 (OVCAR-5 ovarian): 3.28 µM
TGI (OVCAR-5 ovarian): 36.8 µM
GI50 (OVCAR-8 ovarian): 11.1 µM
TGI (OVCAR-8 ovarian): > 55.8 µM
GI50 (PC-3 prostate): 6.16 µM
TGI (PC-3 prostate): > 55.8 µM
GI50 (RPMI-8226 leukemia): 2.23 µM
TGI (RPMI-8226 leukemia): 15.9 µM
GI50 (RXF 393 renal): 7.57 µM
TGI (RXF 393 renal): 39.4 µM
GI50 (SF-268 CNS): 12.5 µM
TGI (SF-268 CNS): > 55.8 µM
GI50 (SF-295 CNS): 2.36 µM
TGI (SF-295 CNS): 41.6 µM
GI50 (SF-539 CNS): 6 µM
TGI (SF-539 CNS): 14.3 µM
GI50 (SK-MEL-2 melanoma): 2.99 µM
TGI (SK-MEL-2 melanoma): 16.5 µM
GI50 (SK-MEL-28 melanoma): 2.5 µM
TGI (SK-MEL-28 melanoma): 12.6 µM
GI50 (SK-MEL-5 melanoma): 3.64 µM
TGI (SK-MEL-5 melanoma): 11.9 µM
GI50 (SK-OV-3 ovarian): 10.5 µM
TGI (SK-OV-3 ovarian): > 55.8 µM
GI50 (SN12C renal): 5.1 µM
TGI (SN12C renal): 42.7 µM
GI50 (SNB-19 CNS): 11.1 µM
TGI (SNB-19 CNS): > 55.8 µM
GI50 (SNB-75 CNS): 7.93 µM
TGI (SNB-75 CNS): 35.3 µM
GI50 (SR leukemia): 2.33 µM
TGI (SR leukemia): 31.2 µM
GI50 (SW-620 colon): 1.76 µM
TGI (SW-620 colon): 9.77 µM
GI50 (T-47D breast): 4.78 µM
TGI (T-47D breast): 27.3 µM
GI50 (TK-10 renal): 11.8 µM
TGI (TK-10 renal): > 55.8 µM
GI50 (U251 CNS): 10.7 µM
TGI (U251 CNS): > 55.8 µM
GI50 (UACC-257 melanoma): 9.2 µM
TGI (UACC-257 melanoma): > 55.8 µM
GI50 (UACC-62 melanoma): 1.34 µM
TGI (UACC-62 melanoma): 3.98 µM
GI50 (UO-31 renal): 7.85 µM
TGI (UO-31 renal): > 55.8 µM

Source: PubChem BioAssay (NCI)
